From patent publication US11780826B2 (Amgen Inc., priority 2017, dated 2023)

System: Bovine cardiac myofibrils
Assay: In vitro model of dose-dependent myofibril ATPase modulation (AC1.4, pyruvate kinase/lactate dehydrogenase-coupled ATPase assay at pCa25)
Format: biochemical
Conditions: concentration at which ATPase activity was 1.4-fold higher than the bottom of the dose curve, mean of a minimum of two independent tests
Procedure, shortened: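 ATP turnover tracked as NADH absorbance loss at 340 nm, coupled via pyruvate kinase/lactate dehydrogenase, with 1 mM ATP, 2 mM MgCl2 and 12 mM K-PIPES at pH 6.80 (22° C) under EGTA/CaCl2 calcium buffering. Substrate was detergent-treated bovine cardiac myofibrils; 4-parameter curve fit, AC1.4 averaged over at least two runs.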

Row | AC1.4 [µM] | Compound
1 | 4.1855 | CN1CCN(S(=O)(=O)N2CC(C#N)C2)CC1C(=O)N1CCC[C@@H]1C(=O)NCc1ccc(C(F)(F)F)cc1 (stereo partly drawn) [Example 639, (2R)-1-(4-((3-cyanoazetidin-1-yl)sulfonyl)-1-methylpiperazine-2-carbonyl)-N-(4-(trifluoromethyl)benzyl)pyrrolidine-2-carboxamide]
2 | 4.3125 | Cc1cccc(CNC(=O)[C@H]2CCCN2C(=O)[C@H]2CCCN(S(=O)(=O)N3CC(C#N)C3)C2)c1 [Example 643, 1-(((3S)-1-((3-cyano-1-azetidinyl)sulfonyl)-3-piperidinyl)carbonyl)-N-(3-methylbenzyl)-D-prolinamide]
3 | 4.351 | O=C(NCc1ccc(C(F)(F)F)cc1)[C@H]1CCCN1C(=O)[C@H]1CCCN(S(=O)(=O)NC2CS(=O)(=O)C2)C1 [Example 645, 1-(((3S)-1-((l,l-dioxido-3-thietanyl)sulfamoyl)-3-piperidinyl)carbonyl)-N-(4-(trifluoromethyl)benzyl)-D-prolinamide]
4 | 4.421 | N#CC1CN(S(=O)(=O)N2CC[C@H](C(=O)N3CCC[C@@H]3C(=O)NCc3ccc(C(F)(F)F)cc3)C2)C1 [Example 648, 1-(((3S)-1-((3-cyano-1-azetidinyl)sulfonyl)-3-pyrrolidinyl)carbonyl)-N-(4-(trifluoromethyl)benzyl)-D-prolinamide]
5 | 4.5245 | N#CC1CN(S(=O)(=O)N2CCC[C@H](C(=O)N3CCC[C@@H]3C(=O)NCc3ccc(F)cc3C(F)(F)F)C2)C1 [Example 652, 1-(((3S)-1-((3-cyano-1-azetidinyl)sulfonyl)-3-piperidinyl)carbonyl)-N-(4-fluoro-2-(trifluoromethyl)benzyl)-D-prolinamide]
6 | 4.538 | O=C(NCc1ccc(C(F)(F)F)cc1)[C@H]1CCCN1C(=O)[C@H]1CCCN(S(=O)(=O)N2CC3(CCO3)C2)C1 [Example 654, (R)-1-((S)-1-(1-oxa-6-azaspiro[3.3]heptan-6-ylsulfonyl)piperidine-3-carbonyl)-N-(4-(trifluoromethyl)benzyl)pyrrolidine-2-carboxamide]
7 | 4.572 | N#CC1CN(S(=O)(=O)N2CCC[C@H](C(=O)N3CCC[C@@H]3C(=O)NC3COc4ccc(C(F)(F)F)cc43)C2)C1 (stereo partly drawn) [Example 657, (2R)-1-((S)-1-((3-cyanoazetidin-1-yl)sulfonyl)piperidine-3-carbonyl)-N-(5-(trifluoromethyl)-2,3-dihydrobenzofuran-3-yl)pyrrolidine-2-carboxamide]
8 | 4.605 | N#CC1CN(S(=O)(=O)N2CCC[C@H](C(=O)N3CCC[C@@H]3C(=O)NCc3c(F)cccc3C(F)(F)F)C2)C1 [Example 659, 1-(((3S)-1-((3-cyano-1-azetidinyl)sulfonyl)-3-piperidinyl)carbonyl)-N-(2-fluoro-6-(trifluoromethyl)benzyl)-D-prolinamide]
9 | 4.669 | O=C(NCc1ccc(C(F)(F)F)cc1)[C@H]1CCCN1C(=O)[C@H]1CCCN(S(=O)(=O)C2COC2)C1 [Example 664, 1-(((3S)-1-(3-oxetanylsulfonyl)-3-piperidinyl)carbonyl)-N-(4-(trifluoromethyl)benzyl)-D-prolinamide]

More lines, now with the values behind:

Row | Compound | AC1.4 [µM]
10 | C[C@@H](NC(=O)[C@H]1CCCN1C(=O)c1cccc(S(=O)(=O)N2CC3(CC3)C2)c1)c1ccc(Cl)c(Cl)c1 [Example 635, 1-((3-(5-azaspiro[2.3]hex-5-ylsulfonyl)phenyl)carbonyl)-N-((1R)-1-(3,4-dichlorophenyl)ethyl)-D-prolinamide] | 4.1355
11 | C[C@@H](NC(=O)[C@H]1CCCN1C(=O)c1cccc(S(C)(=O)=O)c1)c1cc(F)c(Cl)cc1F [Example 636, N-((1R)-1-(4-chloro-2,5-difluorophenyl)ethyl)-1-(3-(methylsulfonyl)benzoyl)-D-prolinamide] | 3.919
12 | O=C(N[C@@H](c1cc(F)c(Cl)cc1F)C1COC1)[C@H]1C[C@@H](O)CN1C(=O)c1cncc(C(F)(F)F)c1 [Example 638, (4R)-N-((R)-(4-chloro-2,5-difluorophenyl)(3-oxetanyl)methyl)-4-hydroxy-1-((5-(trifluoromethyl)-3-pyridinyl)carbonyl)-D-prolinamide] | 4.1835
13 | CCc1ccnc(C(=O)N2[C@@H](C(=O)N[C@@H](c3cc(F)c(Cl)cc3F)C3CC3)C[C@H]3C[C@H]32)c1 [Example 640, (1R,3R,5R)-N-((R)-(4-chloro-2,5-difluorophenyl)(cyclopropyl)methyl)-2-((4-ethyl-2-pyridinyl)carbonyl)-2-azabicyclo[3.1.0]hexane-3-carboxamide] | 4.2315
14 | O=C(N[C@@H](c1cc(F)c(Cl)cc1F)C1CC1)[C@H]1C[C@@H](O)CN1C(=O)c1cncc(C(F)(F)F)c1 [Example 641, (4R)-N-((R)-(4-chloro-2,5-difluorophenyl)(cyclopropyl)methyl)-4-hydroxy-1-((5-(trifluoromethyl)-3-pyridinyl)carbonyl)-D-prolinamide] | 4.262
15 | Cc1ccc(F)c(CNC(=O)[C@H]2CCCN2C(=O)[C@H]2CCCN(S(=O)(=O)N3CC(C#N)C3)C2)c1 [Example 642, 1-(((3S)-1-((3-cyano-1-azetidinyl)sulfonyl)-3-piperidinyl)carbonyl)-N-(2-fluoro-5-methylbenzyl)-D-prolinamide] | 4.2755
16 | N#CC1CN(S(=O)(=O)c2cccc(C(=O)N3CCC[C@@H]3C(=O)NCc3ccc(C(F)(F)F)cn3)c2)C1 [Example 644, 1-((3-((3-cyano-1-azetidinyl)sulfonyl)phenyl)carbonyl)-N-((5-(trifluoromethyl)-2-pyridinyl)methyl)-D-prolinamide] | 4.3367
17 | COc1ccc(S(C)(=O)=O)cc1C(=O)N1CCCC[C@@H]1C(=O)N[C@@H](c1ccc(C(F)(F)F)cc1F)C1CC1 [Example 646, (2R)-N-((R)-cyclopropyl(2-fluoro-4-(trifluoromethyl)phenyl)methyl)-1-(2-methoxy-5-(methylsulfonyl)benzoyl)-2-piperidinecarboxamide] | 4.377
18 | CC(C)(C)c1cc(C(=O)N2[C@@H](C(=O)N[C@@H](c3ccc(C(F)(F)F)cc3F)C3COC3)C[C@H]3C[C@H]32)ccn1 [Example 647, (1R,3R,5R)-N-((R)-(2-fluoro-4-(trifluoromethyl)phenyl)(3-oxetanyl)methyl)-2-((2-(2-methyl-2-propanyl)-4-pyridinyl)carbonyl)-2-azabicyclo[3.1.0]hexane-3-carboxamide] | 4.4125
19 | CON(C)S(=O)(=O)c1cccc(C(=O)N2CCC[C@@H]2C(=O)NCc2ccc(C(F)(F)F)cc2)c1 [Example 649, 1-(3-(methoxy(methyl)sulfamoyl)benzoyl)-N-(4-(trifluoromethyl)benzyl)-D-prolinamide] | 4.4365
20 | N#CC1CN(S(=O)(=O)N2CCC[C@H](C(=O)N3CCC[C@@H]3C(=O)NCc3cc(Cl)ccc3Cl)C2)C1 [Example 651, 1-(((3S)-1-((3-cyano-1-azetidinyl)sulfonyl)-3-piperidinyl)carbonyl)-N-(2,5-dichlorobenzyl)-D-prolinamide] | 4.4705
21 | O=C(N[C@@H](c1ccc(C(F)(F)F)cc1F)C1CC1)[C@H]1CCCCN1C(=O)c1ccc2c(c1)S(=O)(=O)CC2 [Example 653, (2R)—N—((R)-cyclopropyl(2-fluoro-4-(trifluoromethyl)phenyl)methyl)-1-((1,1-dioxido-2,3-dihydro-1-benzothiophen-6-yl)carbonyl)-2-piperidinecarboxamide] | 4.5245
22 | N#CC1CN(S(=O)(=O)c2cccc(C(=O)N3CCC[C@@H]3C(=O)NCc3cccc(C(F)(F)F)n3)c2)C1 [Example 655, 1-((3-((3-cyano-1-azetidinyl)sulfonyl)phenyl)carbonyl)-N-((6-(trifluoromethyl)-2-pyridinyl)methyl)-D-prolinamide] | 4.5443
23 | CS(=O)(=O)c1cccc(C(=O)N2C[C@@H](C(F)F)C[C@@H]2C(=O)N[C@@H](c2ccc(C(F)(F)F)cc2F)C2CC2)c1 [Example 656, (4S)-N-((R)-cyclopropyl(2-fluoro-4-(trifluoromethyl)phenyl)methyl)-4-(difluoromethyl)-1-(3-(methylsulfonyl)benzoyl)-D-prolinamide] | 4.071
24 | Cc1ccnc(C(=O)N2[C@@H](C(=O)N[C@@H](c3cc(F)c(C(F)(F)F)cc3F)C3CC3)C[C@H]3C[C@H]32)c1 [Example 658, (1R,3R,5R)-N-((R)-cyclopropyl(2,5-difluoro-4-(trifluoromethyl)phenyl)methyl)-2-((4-methyl-2-pyridinyl)carbonyl)-2-azabicyclo[3.1.0]hexane-3-carboxamide] | 4.159
25 | Cc1ccc(Cl)c(CNC(=O)[C@H]2CCCN2C(=O)[C@H]2CCCN(S(=O)(=O)N3CC(C#N)C3)C2)c1 [Example 660, N-(2-chloro-5-methylbenzyl)-1-(((3S)-1-((3-cyano-1-azetidinyl)sulfonyl)-3-piperidinyl)carbonyl)-D-prolinamide] | 4.606
26 | CCc1ccnc(C(=O)N2[C@@H](C(=O)N[C@@H](c3cc(F)c(C(F)(F)F)cc3F)C3CC3)C[C@H]3C[C@H]32)c1 [Example 661, (1R,3R,5R)-N-((R)-cyclopropyl(2,5-difluoro-4-(trifluoromethyl)phenyl)methyl)-2-((4-ethyl-2-pyridinyl)carbonyl)-2-azabicyclo[3.1.0]hexane-3-carboxamide] | 4.1595
27 | CS(=O)(=O)c1cncc(C(=O)N2CCC[C@@H]2C(=O)N[C@@H](c2ccc(C(F)(F)F)cc2F)C2CC2)c1 [Example 662, N-((R)-cyclopropyl(2-fluoro-4-(trifluoromethyl)phenyl)methyl)-1-((5-(methylsulfonyl)-3-pyridinyl)carbonyl)-D-prolinamide] | 4.4365
28 | CC1(O)CN(S(=O)(=O)N2CCC[C@H](C(=O)N3CCC[C@@H]3C(=O)NCc3ccc(Cl)c(F)c3)C2)C1 [Example 663, N-(4-chloro-3-fluorobenzyl)-1-(((3S)-1-((3-hydroxy-3-methyl-1-azetidinyl)sulfonyl)-3-piperidinyl)carbonyl)-D-prolinamide] | 4.6285
